Measurements taken from patent US6479435B1, “Diaryl ethers and processes for their preparation and herbicidal and desiccant compositions containing them” (ISK Americas Incorporated, priority 1997, dated 2002).

Experiments:
Assay type in all cases: in vivo
[1] = tested on: soybean (Glycine max L., var. Pella 86, SOY); experiment: Post-emerge greenhouse test, crop damage rating; parameters: key to crop damage rating SOY: 0-100 scale: 0 = no damage, 100 = complete death of all plants; settings: 14 days after application, scale 0-100
Outline: (§1)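 Plants at the 2-3 leaf stage, sown 8-21 days earlier, were track-sprayed post-emergence with compound in acetone plus 0.25% v/v non-ionic surfactant at 63-1000 g ai/ha (187 l/ha). Damage was rated at 14 days on a 0-100 scale (0 none, 100 all plants dead), for both crop injury and weed control.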

[2] = tested on: common ragweed (Ambrosia artemisiifolia L., AMBEL); experiment: Post-emerge greenhouse herbicide test, phytotoxicity rating; settings: 14 days after application, scale 0-100
Outline: as §1

[3] = tested on: soybean (Glycine max L., var. Pella 86, SOY); experiment: Pre-emerge greenhouse test, crop damage rating; parameters: key to SOY crop damage rating: 0 = no damage, 100 = complete death of all plants; settings: 14 days after application, rating scale 0-100
Outline: (§2)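 Seeds sown in sandy loam one day before track-sprayer application of acetone solutions at 125–1000 g ai/ha (187 l/ha), then surface-watered to incorporate and bottom-watered. Injury scored visually at 14 days on a 0–100 scale (0 no damage, 100 complete death).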

[4] = tested on: velvetleaf (Abutilon theophrasti, ABUTH); experiment: Post-emerge greenhouse herbicide test, phytotoxicity rating; settings: 14 days after application, scale 0-100
Outline: as §1

[5] = tested on: large crabgrass (Digitaria sanguinalis, DIGSA); experiment: as above; settings: 14 days after application, scale 0-100
Outline: as §1

[6] = tested on: lambsquarters (Chenopodium album, CHEAL); experiment: as above; settings: 14 days after application, scale 0-100
Outline: as §1

[7] = tested on: ivyleaf morningglory (Ipomoea hederacea, IPOHE); experiment: as above; settings: 14 days after application, scale 0-100
Outline: as §1

[8] = tested on: green foxtail (Setaria viridis, SETVI); experiment: as above; settings: 14 days after application, scale 0-100
Outline: as §1

[9] = tested on: redroot pigweed (Amaranthus retroflexus, AMARE); experiment: as above; settings: 14 days after application, scale 0-100
Outline: as §1

[10] = tested on: Johnsongrass (Sorghum halepense, SORHA); experiment: as above; settings: 14 days after application, scale 0-100
Outline: as §1

[11] = tested on: barnyardgrass (Echinochloa crusgalli, ECHCG); experiment: as above; settings: 14 days after application, scale 0-100
Outline: as §1

[12] = tested on: field corn (Zea mays L., var. Dekalb 535, CORN); experiment: Pre-emerge greenhouse test, crop damage rating; settings: 14 days after application, rating scale 0-100
Outline: as §2

[13] = tested on: upland rice (Oryza sp., var.Tebonnet, RICE); experiment: Pre-emerge greenhouse test, crop damage rating; settings: 14 days after application, rating scale 0-100
Outline: as §2

[14] = tested on: field corn (Zea mays L., var. Dekalb 535, CORN); experiment: Post-emerge greenhouse test, crop damage rating; settings: 14 days after application, scale 0-100
Outline: as §1

[15] = tested on: upland rice (Oryza sp., var.Tebonnet, RICE); experiment: Post-emerge greenhouse test, crop damage rating; settings: 14 days after application, scale 0-100
Outline: as §1

[16] = tested on: velvetleaf (Abutilon theophrasti, ABUTH); experiment: Pre-emerge greenhouse herbicide test, phytotoxicity rating; settings: 14 days after application, rating scale 0-100
Outline: as §2

[17] = tested on: common ragweed (Ambrosia artemisiifolia L., AMBEL); experiment: as above; settings: 14 days after application, rating scale 0-100
Outline: as §2

[18] = tested on: large crabgrass (Digitaria sanguinalis, DIGSA); experiment: as above; settings: 14 days after application, rating scale 0-100
Outline: as §2

[19] = tested on: lambsquarters (Chenopodium album, CHEAL); experiment: as above; settings: 14 days after application, rating scale 0-100
Outline: as §2

[20] = tested on: sicklepod (Cassia obtusifolia, CASOB); experiment: as above; settings: 14 days after application, rating scale 0-100
Outline: as §2

[21] = tested on: ivyleaf morningglory (Ipomoea hederacea, IPOHE); experiment: as above; settings: 14 days after application, rating scale 0-100
Outline: as §2

[22] = tested on: green foxtail (Setaria viridis, SETVI); experiment: as above; settings: 14 days after application, rating scale 0-100
Outline: as §2

[23] = tested on: redroot pigweed (Amaranthus retroflexus, AMARE); experiment: as above; settings: 14 days after application, rating scale 0-100
Outline: as §2

[24] = tested on: Johnsongrass (Sorghum halepense, SORHA); experiment: as above; settings: 14 days after application, rating scale 0-100
Outline: as §2

[25] = tested on: barnyardgrass (Echinochloa crusgalli, ECHCG); experiment: as above; settings: 14 days after application, rating scale 0-100
Outline: as §2

SMILES: Nc1ccc(Oc2cc(-n3c(=O)n4n(c3=S)CCCC4)c(F)cc2Cl)nc1 [Compound 8-24]
- crop damage rating SOY ([1]; rate 63 g ai/ha): 0
- crop damage rating SOY ([1]; rate 500 g ai/ha): 40
- phytotoxicity rating AMBEL ([2]; rate 63 g ai/ha): 0
- phytotoxicity rating AMBEL ([2]; rate 500 g ai/ha): 50
- SOY crop damage rating ([3]; Rate 125 g al/ha): 0
- SOY crop damage rating ([3]; Rate 500 g al/ha): 30
- phytotoxicity rating ABUTH ([4]; rate 63 g ai/ha): 95
- phytotoxicity rating ABUTH ([4]; rate 500 g ai/ha): 100
- phytotoxicity rating DIGSA ([5]; rate 63 g ai/ha): 50
- phytotoxicity rating DIGSA ([5]; rate 500 g ai/ha): 20
- phytotoxicity rating CHEAL ([6]; rate 63 g ai/ha): 50
- phytotoxicity rating CHEAL ([6]; rate 500 g ai/ha): 80
- phytotoxicity rating IPOHE ([7]; rate 63 g ai/ha): 70
- phytotoxicity rating IPOHE ([7]; rate 500 g ai/ha): 80
- phytotoxicity rating SETVI ([8]; rate 63 g ai/ha): 0
- phytotoxicity rating SETVI ([8]; rate 500 g ai/ha): 20
- phytotoxicity rating AMARE ([9]; rate 63 g ai/ha): 100
- phytotoxicity rating AMARE ([9]; rate 500 g ai/ha): 100
- phytotoxicity rating SORHA ([10]; rate 63 g ai/ha): 0
- phytotoxicity rating SORHA ([10]; rate 500 g ai/ha): 50
- phytotoxicity rating ECHCG ([11]; rate 63 g ai/ha): 10
- phytotoxicity rating ECHCG ([11]; rate 500 g ai/ha): 0
- CORN crop damage rating ([12]; Rate 125 g al/ha): 0
- CORN crop damage rating ([12]; Rate 500 g al/ha): 0
- RICE crop damage rating ([13]; Rate 125 g al/ha): 0
- RICE crop damage rating ([13]; Rate 500 g al/ha): 20
- crop damage rating CORN ([14]; rate 63 g ai/ha): 10
- crop damage rating CORN ([14]; rate 500 g ai/ha): 10
- crop damage rating RICE ([15]; rate 63 g ai/ha): 20
- crop damage rating RICE ([15]; rate 500 g ai/ha): 30
- ABUTH phytotoxicity rating ([16]; Rate 125 g al/ha): 100
- ABUTH phytotoxicity rating ([16]; Rate 500 g al/ha): 100
- AMBEL phytotoxicity rating ([17]; Rate 125 g al/ha): 80
- AMBEL phytotoxicity rating ([17]; Rate 500 g al/ha): 100
- DIGSA phytotoxicity rating ([18]; Rate 125 g al/ha): 0
- DIGSA phytotoxicity rating ([18]; Rate 500 g al/ha): 30
- CHEAL phytotoxicity rating ([19]; Rate 125 g al/ha): 99
- CHEAL phytotoxicity rating ([19]; Rate 500 g al/ha): 100
- CASOB phytotoxicity rating ([20]; Rate 125 g al/ha): 70
- CASOB phytotoxicity rating ([20]; Rate 500 g al/ha): 50
- IPOHE phytotoxicity rating ([21]; Rate 125 g al/ha): 0
- IPOHE phytotoxicity rating ([21]; Rate 500 g al/ha): 70
- SETVI phytotoxicity rating ([22]; Rate 125 g al/ha): 30
- SETVI phytotoxicity rating ([22]; Rate 500 g al/ha): 80
- AMARE phytotoxicity rating ([23]; Rate 125 g al/ha): 95
- AMARE phytotoxicity rating ([23]; Rate 500 g al/ha): 100
- SORHA phytotoxicity rating ([24]; Rate 125 g al/ha): 20
- SORHA phytotoxicity rating ([24]; Rate 500 g al/ha): 20
- ECHCG phytotoxicity rating ([25]; Rate 125 g al/ha): 0
- ECHCG phytotoxicity rating ([25]; Rate 500 g al/ha): 40

SMILES: Cc1nsc(Oc2cc(-n3c(=O)n4n(c3=S)CCCC4)c(F)cc2Cl)c1[N+](=O)[O-] [Compound 8-35]
- crop damage rating SOY ([1]; rate 63 g ai/ha): 20
- crop damage rating SOY ([1]; rate 500 g ai/ha): 90
- phytotoxicity rating AMBEL ([2]; rate 63 g ai/ha): 10
- phytotoxicity rating AMBEL ([2]; rate 500 g ai/ha): 10
- SOY crop damage rating ([3]; Rate 125 g al/ha): 0
- SOY crop damage rating ([3]; Rate 500 g al/ha): 30
- phytotoxicity rating ABUTH ([4]; rate 63 g ai/ha): 100
- phytotoxicity rating ABUTH ([4]; rate 500 g ai/ha): 100
- phytotoxicity rating DIGSA ([5]; rate 63 g ai/ha): 0
- phytotoxicity rating DIGSA ([5]; rate 500 g ai/ha): 10
- phytotoxicity rating CHEAL ([6]; rate 63 g ai/ha): 80
- phytotoxicity rating CHEAL ([6]; rate 500 g ai/ha): 99
- phytotoxicity rating IPOHE ([7]; rate 63 g ai/ha): 40
- phytotoxicity rating IPOHE ([7]; rate 500 g ai/ha): 95
- phytotoxicity rating SETVI ([8]; rate 63 g ai/ha): 40
- phytotoxicity rating SETVI ([8]; rate 500 g ai/ha): 60
- phytotoxicity rating AMARE ([9]; rate 63 g ai/ha): 95
- phytotoxicity rating AMARE ([9]; rate 500 g ai/ha): 100
- phytotoxicity rating SORHA ([10]; rate 500 g ai/ha): 80
- phytotoxicity rating ECHCG ([11]; rate 63 g ai/ha): 0
- phytotoxicity rating ECHCG ([11]; rate 500 g ai/ha): 80
- CORN crop damage rating ([12]; Rate 125 g al/ha): 30
- CORN crop damage rating ([12]; Rate 500 g al/ha): 30
- RICE crop damage rating ([13]; Rate 500 g al/ha): 70
- crop damage rating CORN ([14]; rate 63 g ai/ha): 10
- crop damage rating CORN ([14]; rate 500 g ai/ha): 10
- crop damage rating RICE ([15]; rate 63 g ai/ha): 20
- crop damage rating RICE ([15]; rate 500 g ai/ha): 50
- ABUTH phytotoxicity rating ([16]; Rate 125 g al/ha): 100
- ABUTH phytotoxicity rating ([16]; Rate 500 g al/ha): 100
- AMBEL phytotoxicity rating ([17]; Rate 125 g al/ha): 50
- AMBEL phytotoxicity rating ([17]; Rate 500 g al/ha): 90
- DIGSA phytotoxicity rating ([18]; Rate 125 g al/ha): 0
- DIGSA phytotoxicity rating ([18]; Rate 500 g al/ha): 80
- CHEAL phytotoxicity rating ([19]; Rate 125 g al/ha): 100
- CHEAL phytotoxicity rating ([19]; Rate 500 g al/ha): 100
- CASOB phytotoxicity rating ([20]; Rate 125 g al/ha): 30
- CASOB phytotoxicity rating ([20]; Rate 500 g al/ha): 100
- IPOHE phytotoxicity rating ([21]; Rate 125 g al/ha): 50
- IPOHE phytotoxicity rating ([21]; Rate 500 g al/ha): 100
- SETVI phytotoxicity rating ([22]; Rate 125 g al/ha): 90
- SETVI phytotoxicity rating ([22]; Rate 500 g al/ha): 100
- AMARE phytotoxicity rating ([23]; Rate 125 g al/ha): 100
- AMARE phytotoxicity rating ([23]; Rate 500 g al/ha): 100
- SORHA phytotoxicity rating ([24]; Rate 125 g al/ha): 20
- SORHA phytotoxicity rating ([24]; Rate 500 g al/ha): 90
- ECHCG phytotoxicity rating ([25]; Rate 125 g al/ha): 10
- ECHCG phytotoxicity rating ([25]; Rate 500 g al/ha): 90
